Source: patent US10993935B2, “Compositions and methods for treatment of lung infections” (priority 2018, dated 2021)

How the values were obtained:
[1] = Adverse effects after nebulization in mice; assay type: in vivo, C57BL/6 mice; settings: mouse, in vivo
Method: Drug Nebulization. C57BL/6 mice (n=8) were first exposed to 5 mL DMSO for 10 minutes to determine any adverse effects that may occur from using DMSO. Mice (n=16) were then exposed to TOB in 0.225% saline or RFX in DMSO via nebulization until the 5 mL drug mixture was depleted—typically 10-15 minutes. Nebulization was conducted using the pressure-based nebulizer and chamber purchased from Kent Scientific (Torrington, Conn.). TOB was nebulized at concentrations of 100 mg (n=4) or 400 mg (n=4) in 5 mL of 0.225% saline. RFX was nebulized at concentrations of 100 mg (n=4) or 400 mg (n=4) in 5 ml of 100% dimethyl sulfoxide. Mice were sacrificed immediately after nebulization via CO2 chamber. Lungs were then collected and homogenized. TOB concentrations were measured using ELISA. RFX concentrations were measured via HPLC.
The potential adverse effects of using DMSO were first assessed by nebulizing DMSO alone to a group of C57BL/6 mice (n=8). This type of mice was used due to their natural resistance against infection based on our previous studies. […] To determine the dosage of each drug received by the mice, the lungs were homogenized and drug concentrations of TOB and RFX were determined via ELISA and HPLC, respectively. […] The droplet size for both TOB and RFX were determined to be identical with the average droplet size for TOB and RFX being 5.07 μm and 5.02 μm, respectively. […]

[2] = test system: P. aeruginosa PAO581 (PAO1mucA25); experiment: NIH drug library screen for inhibition of growth, mucoidy and PalgD-lacZ colour; assay type: cell-based, Pseudomonas aeruginosa
[3] = test system: P. aeruginosa PAO1 with bioluminescent operon (luxCDABE); experiment: Murine pneumonia model, multiple-dose treatment, lung bacterial load; assay type: in vivo, DBA/2 mice; settings: 300 mg doses at 6, 8 and 10 h post-infection (3× TOB, or RFX then 2× TOB); lungs at 12, 18, 24 h
Description: FIG. 6 is a graph showing that the addition of RFX to multiple treatments of TOB results in a decrease of CFU per milliliter of P. aeruginosa in mouse lungs. Plot showing the CFU per milliliter counts of mice after being infected with P. aeruginosa and left untreated, treated with multiple doses of TOB, or treated with multiple doses of TOB with addition of RFX. Data shown represent average of 2 mice per time point per group. Two-way ANOVA was used to test for statistical significance with a P value of <0.01 (****, P<0.0001).
Female DBA/2 mice were infected at 0 hour and split into 3 experimental groups of 8: no treatment; treatment with 300 mg TOB at 6, 8, and 10 h post-infection; or treatment with 300 mg RFX at 6 h and 300 mg TOB at 8 and 10 h post-infection. Two mice from each group were sacrificed at 12, 18, and 24 h post-infection. Lungs from sacrificed mice were homogenized in 1% PPBS and tested for bacterial growth to determine CFU load per mouse. Bacteria grown were also imaged for evidence of bioluminescence. Two mice from each group were left to observe for survival.
Based on the efficacy seen with the single dose treatment a multiple dose study was used to replicate clinical treatment conditions seen with CF infections. The efficacy of TOB in multiple doses with or without RFX was determined using the established lung infection model. […]

Row | Structure (SMILES) | adverse effects [1] | Growth 2 μM ([2]; drug at 2 μM, PAO581 on PIA) | Mucoidy 2 μM ([2]; drug at 2 μM, PAO581 with pLP170-PalgD-lacZ on PIA + X-gal) | Color 2 μM ([2]; drug at 2 μM, X-gal colour of PalgD-lacZ reporter, 'Light' wraps to 'Light Blue') | Growth 10 μM ([2]; drug at 10 μM, PAO581 on PIA) | Growth 50 μM ([2]; drug at 50 μM, PAO581 on PIA) | bacterial growth in the lungs [3]
1 | CO[C@H]1/C=C/O[C@@]2(C)Oc3c(C)c(O)c4c(O)c(c5c(nc6cc(C)ccn65)c4c3C2=O)NC(=O)/C(C)=C\C=C\[C@H](C)[C@H](O)[C@@H](C)[C@@H](O)[C@@H](C)[C@H](OC(C)=O)[C@@H]1C [RFX, rifaximin] | no adverse effects | Reduced | Reduced | Clear | Inhibited | Inhibited | 
2 | NC[C@H]1O[C@H](O[C@H]2[C@H](O)[C@@H](O[C@H]3O[C@H](CO)[C@@H](O)[C@H](N)[C@H]3O)[C@H](N)C[C@@H]2N)[C@H](N)C[C@@H]1O [TOB, tobramycin] |  |  |  |  |  |  | around 10^8 CFUs
